In patent publication US20170258871A1, “COMBINED USE OF A TRKA INHIBITOR AND AN EPHA2 INHIBITOR FOR USING IN THE TREATMENT OF SOLID CANCERS, AND METHOD FOR THE PROGNOSIS OF SURVIVAL OF A PATIENT WHO HAS A SOLID CANCER” (UNIVERSITE DES SCIENCES ET TECHNOLOGIES DE LILLE, priority 2014, published 2017):

Assays:
[1] = test system: MDA-MB-231 HA-TrkA tumours; assay: Xenograft of MDA-MB-231 HA-TrkA in SCID mice, tumour volume (Experiment 1); assay type: in vivo; details: 3 injections every 3 days from day 14; CEP-701 10 mg/kg intraperitoneal, siEphA2 7.5 microg/mouse close to the tumour
Description: FIG. 9: A study of the inhibition of TrkA and EphA2 on tumour development in vivo. The tumours were developed without any intervention for 14 days and then subjected to 3 injections (every 3 days, black arrows) of solvent (control), CEP-701 (10 mg/kg), siEphA2 (7.5 microg/mouse) or CEP-701 (10 mg/kg) and siEphA2 (7.5 microg/mouse). The experiments were stopped 31 days after the first injection of the treatment for ethical considerations after the death of the control mice. A) The tumour volumes were evaluated by measuring the length (;) and the width (w) and then calculating the volume using the formula π/6×l×W×(l+w)/2; the Mann and Whitney test was carried out between the control group and CEP-701 (a), between the control groups and siEphA2 (b), between the control groups and CEP-701+siEphA2 (c), and between the groups siEphA2 and CEP-701+siEphA2 (d)*, P<0.05; **, P<0.01; ns: not significant. B) Study of the inhibition of the expression of receptors by siRNA on the overall survival of SCID mice. […] The tumour volumes were evaluated by measuring the length (l) and width (w) and then calculating the volume using the formula π/6×l×W×(l+w)/2. […] Significance was measured using the log-rank test (P=0.0022). […]
Experiment 1: the mice used were six-week old SCID females. […] The tumour volume was measured according to the following formula: π/6×length×width×(width+length)/2. […]

Src = assay: Western blot of Src phosphorylation in MDA-MB-231 cells; assay type: cell-based
Description: (§1) FIG. 8: A study of the role of TrkA and EphA2 in the activation of proteins Akt and Src. Cells MDA-MB-231 were respectively treated with a TrkA inhibitor (K252a), an anti-EphA2 siRNA (siEphA2), an inhibitor of PI3-K (LY294002) and an inhibitor of Src (SKI-1).
(§2) A and D. Cells MDA-MB-231 HA-TrkA were treated with proNGF N.C. […] The phosphorylation of Akt and Src was determined by using phospho-specific antibodies. The equal charge was verified using Akt and Src antibodies.
(§3) C and F. The phosphorylation of Akt and Src was determined in the total lysates coming from cells MDA-MB-231 transfected with siEphA2 and treated for 30 minutes with proNGF N.C. (C) or NGF (F).
(§4) After treatment, the cells were lysed (lysis buffer: 40 mM HEPES pH 7.5; 1 mM EDTA pH 8.0; 120 mM NaCl; 10 mM NaPPi; 50 mM NaF; 1.5 mM Na3VO4; 1% Triton X 100; 0.1% SDS; 1 mM PMSF; 10% glycerol and 1/100 th of protease inhibitor cocktail (Sigma) (20 min; 4° C.)). The lysates were recovered and clarified by centrifugation (12,000 g; 10 min; 4° C.). The supernatant was then stored at −80° C. until use. The protein extracts were diluted to 2 μg·μL−1 in a Laemmli 1× buffer (7 min; 100° C.) then deposited and separated on SDS-PAGE (concentration gel 3.6% acrylamide and separation gel 7.5% to 10% acrylamide (thickness 1 mm); 180 V; 10 min then 200 V constant; until output of the migration front). The proteins separated by SDS-PAGE were transferred according to the semi-dry transfer method (buffer: 48 mM Tris base, 39 mM glycine, 1.64 mM SDS, 20% methanol (v/v); 14 V; 15 min per gel) or liquid (buffer: 25 mM Tris base and 192 mM glycine; 15% methanol (v/v); 100 V; 30 min) on nitrocellulose membranes (0.45 μm; Whatman; Germany) or PVDF (0.45 μm; Immobilon P; Millipore; France). The PVDF membrane was “activated” beforehand (methanol; 10 min; 20° C.). The membranes were then saturated (TBS-T; 5% BSA; 1 h; 20° C.) then incubated (16 h; 4° C.) with the chosen primary antibody. […] The membranes were placed in an image analyser (LAS 4000; Fuji) connected to a computer which allowed image generation (software Image Reader LAS 4000).
(§5) The antibody against EphA2 was sc-924 (Santa Cruz), the antibody against sortilin was BD Bioscience 612101, the antibody against TrkA was sc 14024 (Santa Cruz), the antibody against HA was MMS-101R (Covance), the antibody against Akt was Cell Signaling 4691, the antibody against phospho-Akt (Ser 473) was Cell Signaling 9271, the antibody against Src was Cell Signaling 2109 (WB), the antibody against PhosphoSrc (Tyr416) was Cell Signaling 2105 and the antibody against actin was Sigma A2066.
(§6) Proteins Akt and Src were both involved in the pro-invasive effect of proNGF. In order to identify the role of TrkA and EphA2 in the activation of proteins Akt and Src, cells MDA-MB-231 were treated respectively with a TrkA inhibitor (K252a), an anti-EphA2 siRNA (siEphA2) the sequence of which is presented in table 1, a PI3-K inhibitor (LY294002) (the activation of Akt in effect underlies that of PI3-K) and an inhibitor of Src (SKI-1).

[2] = test system: tumours xenografted with cells MDA-MB-231 overexpressing TrkA; details: previously demonstrated, ref (34); cited from earlier work
Akt = assay: Western blot of Akt phosphorylation in MDA-MB-231 cells; assay type: cell-based; details: for effect on Akt activation induced by proNGF: proNGF N.C. 30 min, 10 nM K252a, 15 μM LY294002, 50 nM SKI-1 or siEphA2
Description: as §1, §2, §3, §4, §5, §6

[3] = NGF 30 min, 10 nM K252a or siEphA2

SMILES	tumour volume / growth of xenografted tumours vs control [1]	effect on Src phosphorylation induced by NGF (Src; [3])	growth of xenografted tumours [2]	effect on Akt phosphorylation induced by NGF (Akt; [3])	effect on Akt activation induced by proNGF (Akt)	effect on Src activation induced by proNGF (Src; proNGF N.C. 30 min, 10 nM K252a, 15 μM LY294002, 50 nM SKI-1 or siEphA2)
C[C@]12O[C@H](C[C@]1(O)CO)n1c3ccccc3c3c4c(c5c6ccccc6n2c5c31)CNC4=O [CEP-701, reference compound]	slightly, but not significantly, reduced	–	–	–	–	–
COC(=O)[C@@]1(O)C[C@H]2O[C@]1(C)n1c3ccccc3c3c4c(c5c6ccccc6n2c5c31)C(=O)NC4 [K252a, reference compound]	–	inhibited this activation	reduces the growth of tumours	inhibited this activation	abolished the activation of Akt	–
COc1cc2ncnc(Nc3ccc(Oc4ccccc4)cc3)c2cc1OC [SKI-1, reference compound]	–	–	–	–	does not affect the phosphorylation of Akt	inhibition of Src
